# Measurements taken from patent US4594340A, “25,26-dehydro-1α,24R-dihydroxycholecalciferol and 25,26-dehydro-1α,24S-dihydroxycholecalciferol and the epimeric mixture” (Hoffmann-La Roche Inc., priority 1984, dated 1986).
# pEC50: −log10 of the molar value.
# What was measured:
# [1] = Antirachitogenic increase in tibia ash in chicks on vitamin D-deficient diet; type: in vivo, chick (White Leghorn cockerels); conditions: 27 ng, orally, 21 consecutive days
# Procedure: **Oneday-old White Leghorn cockerels were placed on a vitamin Ddeficient
# diet which contained 1% calcium and 0.7% phosphorus and were housed under
# ultravioletfree lighting (General Electric F40G0 gold fluorescent lights)
# The test compound was dissolved in propylene glycol and administered
# orally in a volume of 0.2 ml/day for 21 consecutive days. Controls were
# treated with vehicle alone. Chicks were autopsied on the day after the […]
# [2] = test system: HL-60 cells; experiment: Differentiation of HL-60 cells by nitroblue tetrazolium (NBT) reduction; type: cell-based, human (patient); conditions: Homo sapiens, 96 h; HL-60 cells, NBT test; read-out: HL-60 Test Differentiation NBT Test ED50
# Procedure: Cultures of HL-60 cells were established in the absence (control) or presence of various concentrations of the test compound. […] Proliferation was assessed by directly enumerating the increased number of tumor cells resulting from incubation. Viability was determined by dye exclusion technique to learn whether any of the compounds were lethal to cultured HL-60 cells. Cellular differentiation was evaluated by determining the number of cells which had acquired the enzymes necessary to support a respiratory burst and the functional ability to phagocytose (bind/internalize) particulate material from their environment; both activities being characteristic of mature macrophages and granulocytes,
# Experimental compounds were dissolved in sufficient ethanol to yield stock solutions of 1×10^-2 molar. Reduced lighting was employed when working with compounds and stock solutions were stored in the dark at -20° in an argon atmosphere. Compounds were diluted with tissue culture medium and added to flasks containing HL-60 cells to achieve the final concentrations described in each experiment.
# The promyelocytic (HL-60) tumor cell line was derived from a patient with acute promyelocytic leukemia. HL-60 cells were maintained in liquid culture by serial weekly passage in tissue culture medium. In any experiment, three replicate flasks were incubated without compound (control) or in the presence of varying concentrations of compound. […]
# Quantitation of differentiated cells was done by the biochemical method of nitroblue tetrazolium (NBT) reduction. Sufficient cells were pooled from replicate cultures, centrifuged at 220×g, washed once with serum-free tissue culture medium, and resuspended to 1×10^6 cells per ml in Ca^++ --Mg^++ -deficient phosphate buffered saline (prepared by supplementing Ca^++ --Mg^++ -free phosphate buffered saline (PBS) to 10% v/v with heat-inactivated fetal bovine serum). Nitroblue tetrazolium was dissolved at 1 mg per ml in Ca^++ --Mg^++ -deficient PBS with gentle heating and mixing. Tetradecanoyl phorbol acetate (TPA) was dissolved at 1 mg per ml in ethanol and stored at -20° C. Just prior to use, a working solution of TPA was prepared by diluting the stock concentration 100-fold with Ca^++ --Mg^++ -deficient PBS. The test was done in 12×75 mm tubes by adding 0.5 ml Ca^++ --Mg^++ -deficient PBS, 1.0 ml of HL-60 cells, 0.5 ml of NBT solution, and 0.02 ml of the working TPA solution. After mixing, the tubes were incubated in a 37° water bath for 25 minutes then transferred to ice. Undifferentiated and differentiated cells present in any sample were determined microscopically by surveying 200-400 cells per sample or by cytofluorograph by surveying greater than 30,000 cells. Cells without pigmented granules (clear cells) were judged to be undifferentiated while those containing greater than 3 blue-black formazan granules were scored as differentiated. […] Results are expressed as the percentage of differentiated cells present in any sample as calculated according to the formula: [formula]
compound,measurement,setting,value
"C=C1/C(=C\C=C2/CCC[C@]3(C)[C@@H]([C@H](C)CCCC(C)(C)O)CC[C@@H]23)C[C@@H](O)C[C@@H]1O [1α,25-Dihydroxycholecalciferol, reference compound]",Antirachitogenic Increase in Tibia Ash in Chicks,[1],61%
same,pEC50,[2],7.92
